IC50 data for eight molecules are collected here from patent US11702422B2, “Imidazopyridazines as modulators of IL-17” (Janssen Pharmaceutica NV, priority 2020, dated 2023).

A value given as a limit tells only on which side of the number the result lay.

In assay [1] the test system is IL-17A-induced G-CSF production in human normal keratinocyte (NHK). Kind of assay: NHK Assay: IL-17A-induced G-CSF production in human normal keratinocytes. The format is cell-based. Conditions: adult normal human keratinocytes, IL-17A 5 ng/mL, 24 h, simple average if tested more than once. The procedure, abridged: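 Adult normal human keratinocytes were seeded at 3000-4000 cells/well. Recombinant human IL-17A was pre-incubated 1 h at rt with titrated compound, then added to cells (final 5 ng/mL IL-17A, 0.2% DMSO, 5% FBS) for 24 h at 37° C. Supernatant G-CSF was measured by HTRF against a standard curve to give IC50.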

Assay [2] addresses IL-17A(FLAG-Tagged): IL-17RA(His-Tagged) (Homo sapiens, UniProt Q16552, K93Q). Briefly: IL-17A(FLAG-Tagged): IL-17RA(His-Tagged) Binding Disruption Eu-HTRF Assay. Particulars: IL-17A/IL-17RA binding disruption, simple average if tested more than once. The procedure, abridged:
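IC50 comes from a one-site competition fit of the HTRF 665/620 nm ratio. Compound dilutions (2-fold, 22 points) were held 1 h rt with FLAG-tagged IL-17A dimer, then His-tagged IL-17RA plus Eu-cryptate anti-FLAG and D2 anti-His antibodies were added for 2 h rt.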

Chain of UniProt Q16552 (Q16552 with tags, fused parts or gaps K93Q): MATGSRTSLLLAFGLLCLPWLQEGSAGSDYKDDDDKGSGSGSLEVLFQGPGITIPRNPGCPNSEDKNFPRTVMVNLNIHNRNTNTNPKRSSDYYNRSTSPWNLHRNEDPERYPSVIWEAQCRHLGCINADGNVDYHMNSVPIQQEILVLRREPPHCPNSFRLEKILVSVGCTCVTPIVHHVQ

As usually defined, the IC50 is the concentration that inhibits the measured activity by half. A higher IC50 goes with weaker potency. With `Cc1nonc1C(=O)N[C@H](c1cn2ncc(C(CC3CCC3)NC(=O)CC3CC(F)(F)C3)cc2n1)C1CCC(F)(F)CC1` (single isomer, unassigned) [Example 438, N—((S)-(7-((R*)-2-Cyclobutyl-1-(2-(3,3-difluorocyclobutyl)acetamido)ethyl)imidazo[1,2-b]pyridazin-2-yl)(4,4-difluorocyclohexyl)methyl)-4-methyl-1,2,5-oxadiazole-3-carboxamide], the IC50 in assay [1] is 8000 nM; in assay [2], 470 nM.
Take `Cc1nonc1C(=O)N[C@H](c1cn2ncc(C(CC3CCC3)NC(=O)CC3CC(F)(F)C3)cc2n1)C1CCC(F)(F)CC1` (single isomer, unassigned) [Example 439, N—((S)-(7-((S*)-2-Cyclobutyl-1-(2-(3,3-difluorocyclobutyl)acetamido)ethyl)imidazo[1,2-b]pyridazin-2-yl)(4,4-difluorocyclohexyl)methyl)-4-methyl-1,2,5-oxadiazole-3-carboxamide]: the results for the IC50 in assay [1] and in assay [2] were 150 nM and 99 nM, respectively.
The like results for `CC(C)n1nccc1C(=O)N[C@H](c1cn2ncc(C(CC3CCC3)NC(=O)CC3CC(F)(F)C3)cc2n1)C1CCC(F)(F)CC1` (single isomer, unassigned) [Example 440, N—((S)-(7-((R*)-2-Cyclobutyl-1-(2-(3,3-difluorocyclobutyl)acetamido)ethyl)imidazo[1,2-b]pyridazin-2-yl)(4,4-difluorocyclohexyl)methyl)-1-isopropyl-1H-pyrazole-5-carboxamide] were, in that order, 59 nM and 92 nM.
For `CC(C)n1nccc1C(=O)N[C@H](c1cn2ncc(C(NC(=O)CC3CC(F)(F)C3)C(C)(C)O)cc2n1)C1CCC(F)(F)CC1` (single isomer, unassigned) [Example 444, N—((S)-(7-((R*)-1-(2-(3,3-Difluorocyclobutyl)acetamido)-2-hydroxy-2-methylpropyl)imidazo[1,2-b]pyridazin-2-yl)(4,4-difluorocyclohexyl)methyl)-1-isopropyl-1H-pyrazole-5-carboxamide] the same measures were 11000 nM and 2300 nM.
For `Cc1nonc1C(=O)N[C@H](c1cn2ncc(C(NC(=O)CC3CC(F)(F)C3)C(C)(C)O)cc2n1)C1CCC(F)(F)CC1` (single isomer, unassigned) [Example 445, N—((S)-(7-((R*)-1-(2-(3,3-Difluorocyclobutyl)acetamido)-2-hydroxy-2-methylpropyl)imidazo[1,2-b]pyridazin-2-yl)(4,4-difluorocyclohexyl)methyl)-4-methyl-1,2,5-oxadiazole-3-carboxamide] the same measures were over 20000 nM and 5800 nM.
Regarding `Cc1nonc1C(=O)N[C@H](c1cn2ncc(C(CC#N)NC(=O)CC3CC(F)(F)C3)cc2n1)C1CCC(F)(F)CC1` (single isomer, unassigned) [Example 446, N—((S)-(7-((R*)-2-Cyano-1-(2-(3,3-difluorocyclobutyl)acetamido)ethyl)imidazo[1,2-b]pyridazin-2-yl)(4,4-difluorocyclohexyl)methyl)-4-methyl-1,2,5-oxadiazole-3-carboxamide], the results for the IC50 in assay [1] and in assay [2] were 8800 nM and 710 nM, respectively.
For `CC(C)n1nccc1C(=O)N[C@H](c1cn2ncc(C(CC#N)NC(=O)CC3CC(F)(F)C3)cc2n1)C1CCC(F)(F)CC1` (single isomer, unassigned) [Example 447, N—((S)-(7-((R*)-2-Cyano-1-(2-(3,3-difluorocyclobutyl)acetamido)ethyl)imidazo[1,2-b]pyridazin-2-yl)(4,4-difluorocyclohexyl)methyl)-1-isopropyl-1H-pyrazole-5-carboxamide] the same measures were 1100 nM and 300 nM.
Turning to `N#CC1([C@@H](NC(=O)C[C@H]2CC2(F)F)c2cnn3cc([C@@H](NC(=O)c4nonc4C4CC4)C4CCC(F)(F)CC4)nc3c2)CCC1` (single isomer, unassigned) [Example 448], the IC50 in assay [1] (Homo sapiens, Keratinocyte) was found to be 12 nM; in assay [2] it was 35 nM.
